The values that follow come from ChEMBL document CHEMBL1137184, “Anti-HIV activity of some synthetic lignanolides and intermediates” (Bioorg Med Chem Lett, 2004).

Data set [1] deals with Human immunodeficiency virus 1. The data set can be described thus: Compound was evaluated for the inhibition of HIV-1 LTR by TNF-alpha-induced NF-kB assay at 50 uM concentration (TNF-alpha-treated cells). Type of data set: functional.
For data set [2], the system named is Human immunodeficiency virus 1. The data set can be described thus: Compound was evaluated for the inhibition of HIV-1 LTR by TNF-alpha-induced NF-kB assay at 25 uM concentration (TNF-alpha-treated cells). It is filed as functional.
The subject of data set [3] is Human immunodeficiency virus 1. The data set can be described thus: Compound was evaluated for anti-Tat activity in the HeLa-TAT-Luc cell assay against human immunodeficiency virus at 100 uM concentration (Untreated cells). It is filed as functional.
Data set [4] concerns Human immunodeficiency virus 1. The data set can be described thus: Compound was evaluated for anti-Tat activity in the HeLa-TAT-Luc cell assay against human immunodeficiency virus at 50 uM concentration (Untreated cells). Type of data set: functional.
The test system of data set [5] is Human immunodeficiency virus 1. The experiment in a line: Compound was evaluated for the inhibition of HIV-1 LTR by TNF-alpha-induced NF-kB assay at 100 uM concentration (TNF-alpha-treated cells). Type of data set: functional.
For data set [6], the system named is Human immunodeficiency virus 1. The data set can be described thus: Compound was evaluated for anti-Tat activity in the HeLa-TAT-Luc cell assay against human immunodeficiency virus at 25 uM concentration (Untreated cells). Type of data set: functional.
Data set [7] relates to Human immunodeficiency virus 1. The experiment in a line: Compound was evaluated for the inhibition of HIV-1 LTR by TNF-alpha-induced NF-kB assay at 100 uM concentration (TNF-alpha-treated cells);toxic at this dose. It is filed as functional, organism-based.
Data set [8] can be described thus: Compound was evaluated for toxicity in necrosis using MT2 assay at 25 uM concentration at 24 hr. The note with it: human.
The subject of data set [9] is Human immunodeficiency virus 1. The experiment in a line: Compound was evaluated for anti-Tat activity in the HeLa-TAT-Luc cell assay against human immunodeficiency virus at 50 uM concentration (Untreated cells);toxic at this dose. Type of data set: functional, organism-based.
The test system of data set [10] is Human immunodeficiency virus 1. The data set can be described thus: Compound was evaluated for anti-Tat activity in the HeLa-TAT-Luc cell assay against human immunodeficiency virus at 100 uM concentration (Untreated cells);toxic at this dose. Type of data set: functional, organism-based.
Data set [11] in a line: Compound was evaluated for toxicity in necrosis using MT2 assay at 50 uM concentration at 24 hr. To be noted: human.
The test system of data set [12] is Human immunodeficiency virus 1. The experiment in a line: Compound was evaluated for the inhibition of HIV-1 LTR by HeLa-Tet-ON assay at 25 uM concentration. It is filed as functional.
In data set [13] the test system is Human immunodeficiency virus 1. The data set can be described thus: Compound was evaluated for the inhibition of HIV-1 LTR by HeLa-Tet-ON assay at 50 uM concentration. It is filed as functional.
Data set [14] has as its system Human immunodeficiency virus 1. The experiment in a line: Compound was evaluated for activity in Recombinant virus assay at concentration that reduces luciferase activity, thus recombinant virus replication. Type of data set: functional, organism-based.
The nature of data set [15]: Compound was evaluated for IP toxicity at concentration that reduces cellular growth. The note with it: human.

A value given as a limit tells only on which side of the number the result lay.

Consider `COc1cc([C@H]2c3c(ccc4ccccc34)C3(SCCCS3)[C@H]3COC(=O)[C@H]23)cc(OC)c1OC`, for which the inhibition at 50 µM was 10.8% in data set [1] and -9.4% in [4]. The inhibition at 25 µM is 17.6% in [2] and -9.1% in data set [6]. Further, the inhibition at 100 µM in data set [3] was -19%; in data set [5], -11.7%.
In the case of `COc1cc(C2C(=O)OCC2C(=O)c2cccc3ccccc23)cc(OC)c1OC` (configuration not stated), the inhibition entry in data set [7], in data set [9] and in data set [10] was “Toxic” in each case. In addition, the inhibition at 50 µM was 24.9% in data set [1] and more than 15% in [13]. Further, the Cell death in data set [8] stood at 6.2%; in data set [11], 7.6%. The results for the inhibition at 25 µM in data set [2], in [6] and in data set [12] were 1.5%, 11.6% and more than 15%, respectively.
Turning to `COC(=O)[C@H]1[C@H](c2cc(OC)c(OC)c(OC)c2)c2c(ccc3ccccc23)C(=O)[C@]12CCN=N2`, the figures for the inhibition at 50 µM in data set [1], in data set [4] and in [13] were 87.1%, 42.2% and more than 15%, respectively. Also, the Cell death in data set [8] stood at 30; in data set [11], 43.1. The inhibition at 25 µM in data set [2] is 32.9%; in data set [6] it was 38.8%; in data set [12] it was more than 15%. In addition, the inhibition at 100 µM came to 46% in data set [3] and 92% in [5].
With `C=C1C(=O)c2ccc3ccccc3c2[C@@H](c2cc(OC)c(OC)c(OC)c2)[C@@H]1C(=O)OC`, the inhibition result in data set [7], in data set [9] and in [10] was “Toxic” in each case. The inhibition at 50 µM in data set [1] was 98.9%; in data set [13], more than 15%. For the same compound, the Cell death in data set [8] was 95%; in data set [11], 98%. The inhibition at 25 µM in data set [2] is 96.7%; in data set [6], 56.2%; in [12] it was less than 15%.
In the case of `COc1cc(C(O)[C@H]2C(=O)OCC2C2(c3ccc4ccccc4c3)SCCCS2)cc(OC)c1OC` (some centres not stated), the inhibition at 50 µM in data set [1] was 57.2%; in data set [4], 38.8%; in data set [13], more than 15%. Also, the Cell death is given as 11.4% in [8] and 14.6% in [11]. Moreover, the inhibition at 25 µM is 77% in [2], 36.6% in data set [6] and more than 15% in [12]. Moreover, the inhibition at 100 µM stood at 30.9% in [3] and 65.9% in [5].
`O=C1CC(C2(c3cccc4ccccc34)SCCCS2)CO1` (configuration not stated): the results for the inhibition at 50 µM in data set [1], in data set [4] and in data set [13] were 24.2%, 9.7% and more than 15%, respectively. The Cell death in data set [8] was 2.9%; in [11], 3.5%. The inhibition at 25 µM is 3% in data set [2], 6% in data set [6] and less than 15% in data set [12]. In addition, the inhibition at 100 µM in data set [3] is 25.6%; in data set [5], 81%.
Consider `COc1cc([C@@H]2c3c(ccc4ccccc34)C(=O)[C@H]3COC(=O)[C@@H]23)cc(OC)c1OC`, for which the inhibition at 50 µM is 25.8% in [1], 60% in data set [4] and more than 15% in data set [13]. The figures for the Cell death in [8] and in [11] were 5.5% and 4.5%, respectively. For the same compound, the inhibition at 25 µM in [2] is 32.9%; in [6], -0.6%; in [12] it was less than 15%. Further, the inhibition at 100 µM in [3] worked out at 43%; in [5], 95.5%.
Turning to `COc1cc([C@@H]2c3cccc4cccc(c34)C3(SCCCS3)[C@H](CO)[C@@H]2CO)cc(OC)c1OC`, the inhibition at 50 µM turned out to be 35.2% in data set [1] and 17.6% in [4]. In addition, the Cell death in data set [8] came out at 7.9%; in data set [11], 6.7%. For the same compound, the results for the inhibition at 25 µM in data set [2] and in data set [6] were 43.5% and 11.7%, respectively. Moreover, the inhibition at 100 µM was found to be 16.4% in [3] and 25.2% in [5].
Regarding `CCn1c2ccccc2c2cc(C3(C4COC(=O)C4)SCCCS3)ccc21` (configuration not stated), the IC50 in [14] was 4.52 µM. Also, the inhibition at 50 µM was 30% in data set [1], 41.5% in data set [4] and less than 15% in [13]. Also, the Cell death in data set [8] is reported as 4.9%; in [11], 4.2%. Besides, the values for the inhibition at 25 µM in data set [2], in [6] and in data set [12] were -7.1%, 43.4% and less than 15%, respectively. In addition, the results for the inhibition at 100 µM in data set [3] and in data set [5] were 40.1% and 17.6%, respectively. In data set [15], this compound had a CC50 of more than 50 µM.
With `COc1cc([C@@H]2c3cccc4cccc(c34)C3(SCCCS3)[C@@H]3COC(=O)[C@@H]23)cc(OC)c1OC`, the figures for the inhibition at 50 µM in [1] and in [4] were 38% and -39.7%, respectively. Also, the Cell death in [8] was determined as 10.3%; in data set [11] it was 10.5%. Besides, the inhibition at 25 µM in data set [2] is 21.8%; in data set [6] it was -35.9%. The inhibition at 100 µM in data set [3] was -40.9%; in data set [5], 23.6%.
Regarding `CCn1c2ccccc2c2cc(C3(C4COC(=O)[C@@H]4C(O)c4cc(OC)c(OC)c(OC)c4)SCCCS3)ccc21` (some centres not stated), the IC50 in data set [14] turned out to be 26.8 µM. Further, the inhibition at 50 µM in [1] was 39.7%; in data set [4], 20.3%; in data set [13], less than 15%. The Cell death in [8] amounted to 4.6%; in data set [11], 4%. For the same compound, the inhibition at 25 µM was 38.5% in data set [2], 11.9% in [6] and less than 15% in data set [12]. The results for the inhibition at 100 µM in [3] and in data set [5] were 30.7% and 43.7%, respectively. The compound further yielded a half-maximal cytotoxic concentration (CC50) in [15] of more than 50 µM.
Consider `COc1cc2c(c(OC)c1OC)[C@]13C(=O)OC[C@H]1[C@@H](C)c1cccc4cccc(c14)[C@@H]23`, for which the IC50 in data set [14] came to 2.29 µM. Moreover, the values for the inhibition at 50 µM in [1], in data set [4] and in [13] were 56.1%, -52.9% and less than 15%, respectively. For the same compound, the Cell death is recorded as 7.8% in [8] and 11.3% in [11]. Moreover, the inhibition at 25 µM in data set [2] is 73.6%; in [6] it was -53.1%; in [12] it was less than 15%. Besides, the inhibition at 100 µM in data set [3] is -53.1%. Further, the CC50 in data set [15] is more than 50 µM.
Regarding `COc1cc(C(O)[C@@H]2C(=O)OCC2C(=O)c2cccc3ccccc23)cc(OC)c1OC` (some centres not stated), in [7], the inhibition result was “Toxic”. In addition, the inhibition at 50 µM in data set [1] was 64.2%; in data set [4], 18%; in data set [13], more than 15%. The figures for the Cell death in [8] and in data set [11] were 32.1% and 45.7%, respectively. For the same compound, the inhibition at 25 µM in data set [2] is 37.5%; in data set [6], 1.6%; in [12] it was more than 15%. Further, the inhibition at 100 µM in [3] came to 65%.
